These are literature values, as cited in US9333174B2, “Use of simple amino acids to form porous particles” (Civitas Therapeutics, Inc., priority 1999, dated 2016).

For this series the following is noted: hydrophobicity scale on which glycine has the value 0.5; value of the amino acid itself.

`N[C@@H](CCC(=O)O)C(=O)O` [Glutamate]: the hydrophobicity was 0.043.
In the case of `CC[C@H](C)[C@H](N)C(=O)O` [Isoleucine], the hydrophobicity is given as 0.943.
Take `N[C@@H](Cc1ccccc1)C(=O)O` [Phenylalanine]: the hydrophobicity was 0.501.
In the case of `NCC(=O)O` [glycine], the hydrophobicity is 0.5.
